Laboratory results from patent publication US10941158B2, “Pyrazole ACC inhibitors and uses thereof” (Gilead Apollo, LLC, priority 2015, dated 2021).
In brackets after ≈: the same amount, converted by molar mass. Read-outs that look alike come from different tables or passages of the source.

Columns and labels:
[1] = biological target: fungal (fACC2) ACC2 (UniProt Q00955); details: read-out: fACC2 IC50; fungal ACC2, ADP-Glo
Procedure: An exemplary procedure for the in vitro ACC inhibition assay, which can be used to determine the inhibitory action of compounds of the invention toward either human (hACC2) or fungal (fACC2) ACC2, follows. The ADP-Glo™ Kinase Assay kit from Promega was used. The ADP-Glo™ Kinase Assay is a luminescent ADP detection assay to measure enzymatic activity by quantifying the amount of ADP produced during an enzyme reaction. The assay is performed in two steps; first, after the enzyme reaction, an equal volume of ADP-Glo™ Reagent is added to terminate the reaction and deplete the remaining ATP. Second, the Kinase Detection Reagent is added to simultaneously convert ADP to ATP and allow the newly synthesized ATP to be measured using a luciferase/luciferin reaction. Luminescence can be correlated to ADP concentrations by using an ATP-to-ADP conversion curve. The detailed procedure is as follows. 50 μL of the compound being tested (600 μM in DMSO) was added to a 384-well dilution plate. The compound was diluted 1:3 in succession in DMSO for each row for 11 wells. 0.5 μL ACC2 working solution was added to 384-well white Optiplate assay plate. 0.5 μL diluted compound solution in each column from step 2 was added to assay plate, each row containing 2 replicates. […] The plates were incubated at room temperature for 15 minutes. 5 μL substrate working solution was added to each well to initiate reaction. Final ACC2 reaction concentrations consist of: 5 nM ACC2, 20 μM ATP, 20 μM acetyl-CoA, 12 mM NaHCO3, 0.01% Brij35, 2 mM DTT, 5% DMSO, test compound concentrations: 30 μM, 10 μM, 3.33 μM, 1.11 μM, 0.37 μM, 0.123 μM, 0.0411 μM, 0.0137 μM, 0.00457 μM, 0.00152 μM, and 0.00051 μM. Plates were incubated at room temperature for 60 minutes. 10 μL ADP glo reagent was added. Plates were incubated at room temperature for 40 minutes. 20 μL kinase detection reagent was added. Plates were incubated at room temperature for 40 minutes, and then read on a Perkin Elmer EnVision 2104 plate reader for luminescence as Relative Light Units (RLU).
Data for each concentration, as well as the positive and negative controls were averaged, and the standard deviation calculated. Percent inhibition was calculated by the formula: 100×(average negative control−compound)/(average negative control−average positive control). The IC50 for each compound was calculated by fitting the data with a non-linear regression equation: Y=Bottom+(Top-Bottom)/(1+10^((Log IC50−X)*Hill Slope)), where X is the log of compound concentration and Y is percent inhibition.
Compounds having an activity designated as “AA” provided an IC50 0.0006-0.003 μM; provided an “A” provided an IC50 0.003-0.01 μM; compounds having an activity designated as “B” provided an IC50 0.01-0.04 μM; and compounds having an activity designated as “C” provided an IC50>0.04 μM IC50. “NA” stands for “not assayed.”

[2] = tested on: C. parapsilosis ATCC 22019; assay: Anti-Fungal (Candida) Activity Assay, broth microtiter MIC; format: cell-based; details: Lodderomyces parapsilosis, read-out: MIC C. parapsilosis ATCC 22019
Outline: (§1)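 MIC by visual comparison of challenged wells with growth control, scored at 48 h. Setup: CLSI M27-A3 broth microtiter plates, RPMI 1640+MOPS medium, direct colony suspension from overnight Sabouraud agar cultures (35 °C, 24 h).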

[3] = tested on: C. albicans ATCC 90028; assay: as above; format: cell-based; details: read-out: MIC C. albicans ATCC 90028
Outline: as §1

[4] = tested on: C. krusei ATCC 6258; assay: as above; format: cell-based; details: Pichia kudriavzevii, read-out: MIC C. krusei ATCC 6258
Outline: as §1

[5] = biological target: human (hACC2) ACC2 (Homo sapiens, UniProt O00763); assay: In vitro Acetyl-CoA Carboxylase (ACC) inhibition assay (ADP-Glo), hACC2; format: biochemical
human (hACC2) ACC2, sequence (O00763 whole entry): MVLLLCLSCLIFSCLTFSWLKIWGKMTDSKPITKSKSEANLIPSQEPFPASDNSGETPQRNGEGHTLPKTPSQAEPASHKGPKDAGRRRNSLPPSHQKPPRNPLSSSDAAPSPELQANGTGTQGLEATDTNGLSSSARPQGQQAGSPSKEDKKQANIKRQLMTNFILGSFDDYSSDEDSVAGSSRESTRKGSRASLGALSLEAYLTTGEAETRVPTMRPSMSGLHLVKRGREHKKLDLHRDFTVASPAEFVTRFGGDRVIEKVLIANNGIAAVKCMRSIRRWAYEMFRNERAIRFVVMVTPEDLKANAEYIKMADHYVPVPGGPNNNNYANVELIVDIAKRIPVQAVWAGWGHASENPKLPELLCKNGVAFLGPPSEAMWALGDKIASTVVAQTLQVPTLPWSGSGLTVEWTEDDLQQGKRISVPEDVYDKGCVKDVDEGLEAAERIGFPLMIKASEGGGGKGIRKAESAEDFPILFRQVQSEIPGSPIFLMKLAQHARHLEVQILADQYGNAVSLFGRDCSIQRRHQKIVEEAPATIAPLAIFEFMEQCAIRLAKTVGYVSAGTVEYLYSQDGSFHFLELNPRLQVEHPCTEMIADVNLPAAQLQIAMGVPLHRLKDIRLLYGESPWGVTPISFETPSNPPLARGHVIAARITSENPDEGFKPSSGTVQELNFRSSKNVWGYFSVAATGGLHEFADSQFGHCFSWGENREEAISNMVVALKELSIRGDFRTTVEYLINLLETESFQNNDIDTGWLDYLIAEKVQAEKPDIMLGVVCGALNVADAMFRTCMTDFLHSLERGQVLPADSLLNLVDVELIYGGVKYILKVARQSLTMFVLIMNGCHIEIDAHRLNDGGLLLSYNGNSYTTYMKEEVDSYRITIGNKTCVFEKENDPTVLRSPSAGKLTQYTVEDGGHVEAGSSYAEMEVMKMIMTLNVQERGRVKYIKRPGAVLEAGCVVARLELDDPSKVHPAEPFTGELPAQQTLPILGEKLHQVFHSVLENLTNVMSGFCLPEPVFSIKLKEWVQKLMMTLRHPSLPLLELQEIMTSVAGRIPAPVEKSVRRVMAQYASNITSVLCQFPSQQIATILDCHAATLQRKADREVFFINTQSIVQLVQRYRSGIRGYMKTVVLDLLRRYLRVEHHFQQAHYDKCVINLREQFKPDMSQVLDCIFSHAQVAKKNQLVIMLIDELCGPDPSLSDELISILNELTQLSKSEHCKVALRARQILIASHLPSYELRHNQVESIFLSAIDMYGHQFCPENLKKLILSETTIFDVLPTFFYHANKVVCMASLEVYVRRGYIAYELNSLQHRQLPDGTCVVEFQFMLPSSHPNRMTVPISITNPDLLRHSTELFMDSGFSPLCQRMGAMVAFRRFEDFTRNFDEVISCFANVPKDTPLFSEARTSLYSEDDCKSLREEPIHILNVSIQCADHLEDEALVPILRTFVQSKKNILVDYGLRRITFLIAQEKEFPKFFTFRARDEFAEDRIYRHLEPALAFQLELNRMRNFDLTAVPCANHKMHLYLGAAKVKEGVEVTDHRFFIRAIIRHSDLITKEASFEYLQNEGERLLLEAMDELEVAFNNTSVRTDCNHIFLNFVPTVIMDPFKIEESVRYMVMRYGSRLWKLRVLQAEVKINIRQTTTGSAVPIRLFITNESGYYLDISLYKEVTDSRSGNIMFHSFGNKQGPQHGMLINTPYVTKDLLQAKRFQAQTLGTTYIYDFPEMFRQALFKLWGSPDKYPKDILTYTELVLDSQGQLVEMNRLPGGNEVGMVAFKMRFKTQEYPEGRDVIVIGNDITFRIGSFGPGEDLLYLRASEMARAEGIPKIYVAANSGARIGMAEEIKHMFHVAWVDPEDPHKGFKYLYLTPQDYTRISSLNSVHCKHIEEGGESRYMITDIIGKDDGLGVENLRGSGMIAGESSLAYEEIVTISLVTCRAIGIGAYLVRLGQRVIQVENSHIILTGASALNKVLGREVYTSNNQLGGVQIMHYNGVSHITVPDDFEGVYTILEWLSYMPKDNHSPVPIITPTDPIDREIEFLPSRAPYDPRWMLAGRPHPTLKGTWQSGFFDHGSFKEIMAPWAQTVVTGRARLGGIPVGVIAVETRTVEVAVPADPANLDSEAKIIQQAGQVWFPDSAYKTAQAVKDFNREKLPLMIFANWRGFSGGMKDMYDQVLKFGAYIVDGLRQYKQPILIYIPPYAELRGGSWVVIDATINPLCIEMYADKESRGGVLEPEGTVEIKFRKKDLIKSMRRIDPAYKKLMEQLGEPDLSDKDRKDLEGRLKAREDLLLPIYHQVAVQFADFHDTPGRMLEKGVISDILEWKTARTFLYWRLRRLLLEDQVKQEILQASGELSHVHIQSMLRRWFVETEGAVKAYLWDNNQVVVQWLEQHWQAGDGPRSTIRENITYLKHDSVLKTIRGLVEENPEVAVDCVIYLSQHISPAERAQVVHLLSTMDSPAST
Procedure: The detailed procedure is as follows. […] 10 μL ADP glo reagent was added. […] 20 μL kinase detection reagent was added.
“NA” stands for “not assayed.”

[6] = tested on: Phytophthora capsici (Pc); assay: Growth inhibition assay of fungal pathogens; format: cell-based; details: for IC90: Phytophthora capsici, read-out: Concentration at 90% Inhibition Pc
Outline: (§2)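 Liquid-culture assay in which test compounds are applied at three final concentrations (50, 10, 2 ppm or 2, 0.4, 0.08 ppm). Inoculum levels follow 48 h growth curves for each fungus. Growth is monitored by OD600 and by eye, and the 48 h values give % inhibition against DMSO.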

[7] = tested on: Rhizoctonia solani (Rs); assay: Growth inhibition assay of fungal pathogens; format: cell-based; details: 48 h, read-out: Concentration at 90% Inhibition Rs
Outline: (§3)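 Compounds in DMSO tested at final 50, 10, 2 ppm or 2, 0.4, 0.08 ppm. Spores in 17% V8 medium, or 1.5 mm mycelial plugs in ¼ PDB for R. solani, incubated with compound. OD600 and visual ratings at 48 h versus 2% DMSO control gave percent growth inhibition.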

[8] = tested on: Diplodia maydis (Dm); assay: Growth inhibition assay of fungal pathogens; format: cell-based; details: Stenocarpella maydis, 48 h, read-out: Concentration at 90% Inhibition Dm
Outline: as §3

[9] = tested on: Septoria tritici (St); assay: Growth inhibition assay of fungal pathogens; format: cell-based; details: for IC90: Zymoseptoria tritici, read-out: Concentration at 90% Inhibition St
Outline: as §2

[10] = tested on: Fusarium virguliforme (Fv); assay: Growth inhibition assay of fungal pathogens; format: cell-based; details: 48 h
Outline: as §2

[11] = tested on: Botrtyis cinerea (Bc); assay: Growth inhibition assay of fungal pathogens; format: cell-based; details: 48 h, read-out: Concentration at 90% Inhibition Bc
Outline: as §3

[12] = tested on: Collectotrichum graminicola (Cg); assay: Growth inhibition assay of fungal pathogens; format: cell-based; details: 48 h, read-out: Concentration at 90% Inhibition Cg
Outline: as §2

[13] = tested on: Fusarium moniliforme (Fm); assay: Growth inhibition assay of fungal pathogens; format: cell-based; details: for IC90: Fusarium verticillioides, 48 h, read-out: Concentration at 90% Inhibition Fm
Outline: as §3

[14] = ATCC22019, 3 replicates, MIC recorded at 48 h
[15] = ATCC90028, 3 replicates, MIC recorded at 48 h
[16] = ATCC6258, 3 replicates, MIC recorded at 48 h
[17] = read-out: Concentration at 90% Inhibition Fv, Table 4b, 48 hours
[18] = Table 4b, 48 hours, read-out: Concentration at 90% Inhibition Fv

fungal (fACC2) ACC2, sequence (Q00955 whole entry): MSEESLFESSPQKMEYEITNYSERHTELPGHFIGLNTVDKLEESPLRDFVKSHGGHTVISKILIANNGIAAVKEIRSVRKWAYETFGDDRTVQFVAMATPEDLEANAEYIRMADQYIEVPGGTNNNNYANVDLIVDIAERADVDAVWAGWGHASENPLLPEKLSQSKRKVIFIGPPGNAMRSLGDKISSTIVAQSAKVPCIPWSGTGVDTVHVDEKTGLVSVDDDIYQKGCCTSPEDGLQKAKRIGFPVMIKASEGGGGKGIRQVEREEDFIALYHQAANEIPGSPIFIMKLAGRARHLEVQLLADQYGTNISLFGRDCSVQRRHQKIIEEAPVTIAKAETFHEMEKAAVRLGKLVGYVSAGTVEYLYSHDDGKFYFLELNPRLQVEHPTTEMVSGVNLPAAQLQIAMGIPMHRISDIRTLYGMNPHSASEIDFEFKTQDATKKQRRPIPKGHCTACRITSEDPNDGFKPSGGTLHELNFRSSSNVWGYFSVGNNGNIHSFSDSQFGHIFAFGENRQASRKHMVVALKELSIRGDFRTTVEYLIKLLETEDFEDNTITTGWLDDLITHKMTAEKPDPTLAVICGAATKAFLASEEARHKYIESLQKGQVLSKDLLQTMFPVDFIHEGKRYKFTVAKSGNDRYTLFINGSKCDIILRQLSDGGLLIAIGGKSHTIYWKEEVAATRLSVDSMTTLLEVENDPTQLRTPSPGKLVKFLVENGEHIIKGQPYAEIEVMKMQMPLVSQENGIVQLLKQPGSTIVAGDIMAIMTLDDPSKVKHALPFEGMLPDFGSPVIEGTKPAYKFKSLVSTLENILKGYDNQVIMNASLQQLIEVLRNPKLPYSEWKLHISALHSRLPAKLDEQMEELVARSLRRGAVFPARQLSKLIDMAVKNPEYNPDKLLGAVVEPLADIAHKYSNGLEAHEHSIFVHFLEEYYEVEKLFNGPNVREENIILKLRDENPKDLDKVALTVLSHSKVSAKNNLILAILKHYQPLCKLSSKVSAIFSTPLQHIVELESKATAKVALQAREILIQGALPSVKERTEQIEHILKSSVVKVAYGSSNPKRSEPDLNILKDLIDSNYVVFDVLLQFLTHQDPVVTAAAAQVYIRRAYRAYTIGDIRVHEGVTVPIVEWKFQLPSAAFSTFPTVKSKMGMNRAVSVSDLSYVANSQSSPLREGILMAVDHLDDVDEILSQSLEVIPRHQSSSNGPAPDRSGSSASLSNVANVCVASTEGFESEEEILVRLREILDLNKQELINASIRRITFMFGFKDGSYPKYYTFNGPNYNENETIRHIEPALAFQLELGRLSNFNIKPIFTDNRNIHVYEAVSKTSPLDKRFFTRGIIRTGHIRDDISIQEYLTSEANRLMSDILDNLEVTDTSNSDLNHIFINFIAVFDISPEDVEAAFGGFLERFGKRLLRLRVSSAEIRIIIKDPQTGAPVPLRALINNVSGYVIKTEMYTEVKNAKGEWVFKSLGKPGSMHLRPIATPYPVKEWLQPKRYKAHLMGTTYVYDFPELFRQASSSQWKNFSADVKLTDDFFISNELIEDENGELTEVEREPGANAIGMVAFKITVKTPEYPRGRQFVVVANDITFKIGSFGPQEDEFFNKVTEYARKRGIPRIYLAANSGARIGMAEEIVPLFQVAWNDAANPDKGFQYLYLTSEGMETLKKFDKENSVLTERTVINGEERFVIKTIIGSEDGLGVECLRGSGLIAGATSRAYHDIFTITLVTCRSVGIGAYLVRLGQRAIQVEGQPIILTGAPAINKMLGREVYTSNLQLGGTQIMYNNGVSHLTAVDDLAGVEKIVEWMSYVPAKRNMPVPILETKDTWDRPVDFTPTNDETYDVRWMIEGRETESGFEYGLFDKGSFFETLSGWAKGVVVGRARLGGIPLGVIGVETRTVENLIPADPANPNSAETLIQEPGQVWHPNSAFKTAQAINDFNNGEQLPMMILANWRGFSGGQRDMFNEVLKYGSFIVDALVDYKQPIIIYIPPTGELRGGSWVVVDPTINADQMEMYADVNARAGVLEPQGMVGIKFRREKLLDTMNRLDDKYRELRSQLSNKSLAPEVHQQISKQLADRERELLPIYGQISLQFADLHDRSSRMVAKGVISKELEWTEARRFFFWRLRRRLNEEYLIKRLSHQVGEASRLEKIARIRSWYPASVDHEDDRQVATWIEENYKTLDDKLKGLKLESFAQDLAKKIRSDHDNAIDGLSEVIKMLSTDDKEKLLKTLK

Compound	IC50 [1] [nM]	MIC [2, 14] [µg/mL]	MIC [3, 15] [µg/mL]	MIC [4, 16] [µg/mL]	IC50 [5] [nM]	IC90 ([7]; Table 4b) [µg/mL]	IC90 ([8]; Table 4b) [µg/mL]	IC90 ([11]; Table 4b) [µg/mL]	IC90 ([12]; Table 4b) [µg/mL]	IC90 [10, 18] [µg/mL]	IC90 ([13]; Table 4b, 48 hours) [µg/mL]	further results
COCCO[C@@H](Cn1c(=O)n(C(C)C(N)=O)c(=O)c2c(C)c(-n3cccn3)sc21)c1cc(F)ccc1OC (stereo partly shown) [Compound I-56]	10 to 40	> 4.1	> 4.1	> 4.1	> 40	–	–	–	–	–	–	–
COc1ccc(F)cc1[C@H](Cn1c(=O)n(C(C)C(N)=O)c(=O)c2c(C)c(-n3cccn3)sc21)OCCO (stereo partly shown) [Compound I-61]	0.6 to 3	> 4.1	> 4.1	> 4.1	10 to 40	–	–	–	–	–	–	–
COc1ccc(F)cc1[C@H](Cn1c(=O)n(C(C)(C)C(=O)NC(C)C)c(=O)c2c(C)c(-n3cccn3)sc21)OCCC#N [Compound I-78, (R)-2-(1-(2-(2-cyanoethoxy)-2-(5-fluoro-2-methoxyphenyl)ethyl)-5-methyl-2,4-dioxo-6-(1H-pyrazol-1-yl)-1,4-dihydrothieno[2,3-d]pyrimidin-3(2H)-yl)-N-isopropyl-2-methylpropanamide]	0.6 to 3	–	–	–	10 to 40	10 (≈ 16.8 µM)	> 50	10 (≈ 16.8 µM)	> 50	–	–	IC90 ([6]; 48 h, Table 4b): > 50 µg/mL; IC90 ([9]; 48 h, Table 4b): > 50 µg/mL; IC90 [10, 17]: > 50 µg/mL; IC90 [13]: 10 µg/mL (≈ 16.8 µM)
COCCO[C@@H](Cn1c(=O)n(C(C)C(=O)O)c(=O)c2c(C)c(-n3cccn3)sc21)c1cc(F)ccc1OC (stereo partly shown) [Compound I-57]	10 to 40	> 4.1	> 4.1	> 4.1	10 to 40	–	–	–	–	–	–	–
COCCOc1ccc(F)cc1[C@H](Cn1c(=O)n(C(C)(C)C(=O)N2CCCC2)c(=O)c2c(C)c(-n3cccn3)sc21)OC1CCOCC1 [Compound I-52]	0.6 to 3	1.1 to 2 (≈ 1.61 to 2.92 µM)	2.1 to 4 (≈ 3.07 to 5.85 µM)	1.1 to 2 (≈ 1.61 to 2.92 µM)	3 to 10	–	–	–	–	–	–	–
COc1ccc(F)cc1[C@H](Cn1c(=O)n(C(C)C(=O)O)c(=O)c2c(C)c(-n3cccn3)sc21)OCCO (stereo partly shown) [Compound I-60]	0.6 to 3	> 4.1	> 4.1	> 4.1	3 to 10	–	–	–	–	–	–	–
COCCO[C@@H](Cn1c(=O)n(C(C)(C)C(=O)N2CCCC2)c(=O)c2c(C)c(-n3cccn3)sc21)c1cc(F)ccc1OC [Compound I-44, (R)-1-(2-(5-fluoro-2-methoxyphenyl)-2-(2-methoxy-ethoxy)ethyl)-5-methyl-3-(2-methyl-1-oxo-1-(pyrrolidin-1-yl)propan-2-yl)-6-(1H-pyrazol-1-yl)thieno[2,3-d]pyrimidine-2,4(1H,3H)-dione]	3 to 10	–	–	–	> 40	> 50	> 50	> 50	> 50	10 (≈ 16.3 µM)	10 (≈ 16.3 µM)	IC90 ([6]; Table 4b, 48 hours): > 50 µg/mL; IC90 ([9]; Table 4b, 48 hours): > 50 µg/mL
COCCO[C@@H](Cn1c(=O)n([C@@H](C)C(=O)N2CCCC2)c(=O)c2c(C)c(-n3cccn3)sc21)c1cc(F)ccc1OC [Compound I-75, 1-((R)-2-(5-fluoro-2-methoxyphenyl)-2-(2-methoxyethoxy)ethyl)-5-methyl-3-((S)-1-oxo-1-(pyrrolidin-1-yl)propan-2-yl)-6-(1H-pyrazol-1-yl)thieno[2,3-d]pyrimidine-2,4(1H,3H)-dione]	0.6 to 3	–	–	–	3 to 10	0.08 (≈ 0.133 µM)	2 (≈ 3.34 µM)	2 (≈ 3.34 µM)	2 (≈ 3.34 µM)	0.4 (≈ 0.667 µM)	0.08 (≈ 0.133 µM)	IC90 ([6]; Table 4b, 48 hours): > 50 µg/mL; IC90 ([9]; Table 4b, 48 hours): > 50 µg/mL
COc1ccccc1[C@H](Cn1c(=O)n(C(C)(C)C(=O)O)c(=O)c2c(C)c(-n3cccn3)sc21)OCCC#N [Compound I-79]	0.6 to 3	–	–	–	3 to 10	0.08 (≈ 0.149 µM)	0.4 (≈ 0.744 µM)	0.4 (≈ 0.744 µM)	0.4 (≈ 0.744 µM)	0.4 (≈ 0.744 µM)	0.08 (≈ 0.149 µM)	IC90 ([6]; Table 4b, 48 hours): > 50 µg/mL; IC90 ([9]; Table 4b, 48 hours): 10 µg/mL (≈ 18.6 µM)
COc1ccc(F)cc1[C@H](Cn1c(=O)n(C(C)(C)C(=O)NC(C)C)c(=O)c2c(C)c(-n3cccn3)sc21)OCCO [Compound I-35, (R)-2-(1-(2-(5-fluoro-2-methoxyphenyl)-2-(2-hydroxy-ethoxy)ethyl)-5-methyl-2,4-dioxo-6-(1H-pyrazol-1-yl)-1,4-dihydrothieno[2,3-d]pyrimidin-3(2H)-yl)-N-isopropyl-2-methylpropanamide]	0.6 to 3	–	–	–	10 to 40	2 (≈ 3.4 µM)	10 (≈ 17 µM)	2 (≈ 3.4 µM)	2 (≈ 3.4 µM)	2 (≈ 3.4 µM)	0.4 (≈ 0.681 µM)	IC90 ([6]; Table 4a, 48 hours): > 50 µg/mL; Concentration at 90% Inhibition Pc ([6]; Table 4b, 48 hours): D (“D” provided a compound concentration of >50 ppm at 90% inhibition of fungal pathogens); IC90 ([7]; Table 4a): 2 µg/mL (≈ 3.4 µM); IC90 ([8]; Table 4a): > 50 µg/mL; Concentration at 90% Inhibition St ([9]; Table 4b, 48 hours): D (“D” provided a compound concentration of >50 ppm at 90% inhibition of fungal pathogens); IC90 ([9]; Table 4a, 48 hours): > 50 µg/mL; IC90 ([10]; Table 4a, 48 hours, read-out: Concentration at 90% Inhibition Fv): 2 µg/mL (≈ 3.4 µM); IC90 ([11]; Table 4a): 2 µg/mL (≈ 3.4 µM); IC90 ([12]; Table 4a): 2 µg/mL (≈ 3.4 µM); IC90 ([13]; Table 4a, 48 hours): 0.4 µg/mL (≈ 0.681 µM)
COc1ccccc1[C@H](Cn1c(=O)n(C(C)(C)C(=O)NC(C)C)c(=O)c2c(C)c(-n3cccn3)sc21)OC1CCOCC1 [Compound I-11, (R)—N-isopropyl-2-(1-(2-(2-methoxyphenyl)-2-((tetrahydro-2H-pyran-4-yl)oxy)ethyl)-5-methyl-2,4-dioxo-6-(1H-pyrazol-1-yl)-1,4-dihydrothieno[2,3-d]pyrimidin-3(2H)-yl)-2-methylpropanamide]	–	–	–	–	10 to 40	> 50	10 (≈ 16.4 µM)	10 (≈ 16.4 µM)	10 (≈ 16.4 µM)	–	–	IC90 ([6]; 48 h, Table 4a): > 50 µg/mL; IC90 ([6]; 48 h, Table 4b): > 50 µg/mL; IC90 ([7]; Table 4a): > 50 µg/mL; IC90 ([8]; Table 4a): > 50 µg/mL; IC90 ([9]; 48 h, Table 4a): > 50 µg/mL; IC90 ([9]; 48 h, Table 4b): > 50 µg/mL; IC90 ([10]; read-out: Concentration at 90% Inhibition Fv, Table 4a, 48 hours): > 50 µg/mL; IC90 [10, 17]: 10 µg/mL (≈ 16.4 µM); IC90 ([11]; Table 4a): > 50 µg/mL; IC90 ([12]; Table 4a): > 50 µg/mL; IC90 [13]: 2 µg/mL (≈ 3.28 µM); Concentration at 90% Inhibition Fm ([13]; Table 4b, 48 hours): B (“B” provided a compound concentration of 2.0 ppm at 90% inhibition of fungal pathogens); MIC ([2]; ATCC22019, 48 h): > 4.1 µg/mL; MIC ([3]; ATCC90028, 48 h): > 4.1 µg/mL; MIC ([4]; ATCC6258, 48 h): > 4.1 µg/mL
